In data set [1] the test system is MOLM13 cells. Nature of the data set: MTT cell proliferation assay, MOLM13 cells. In kind it is cell-based, human. The settings on record: for Effect of auranofin and BSO low-dose combination on activity of NF-κB inhibitors, MOLM13: auranofin 0.25-0.5 μM plus BSO 1.25-10 μM with BAY 11-7082 or EF24. The procedure:
For metabolic activity assays, here MTT-assays, cell density was 3×10^4 cells per well (96 well plate). For ROS/superoxide detection assays cell density was 1×10^5 per tube (volume 1 ml). […] The MTT or XTT assay is the most reliable for assessment of cell growth. In principal all assays are based on staining of viable cells after treatment. Cytotoxic effects in cell lines may also be assessed by [^3H] thymidine incorporation (see below). Cell proliferation was assessed by the MTT assay. […] The plates were incubated for 72 h under standard conditions. After addition of 15 μl of a 5 mg/ml MTT solution (MTT; Sigma, Germany) to each well and incubation for another 4 h, 100 μl/well of a 10% sodium dodecyl sulphate solution in 0.01 M hydrochloric acid were added and the plates were incubated overnight under the same conditions (stain development). Subsequently, the absorbance of each well at 540 nm (reference wavelength 690 nm) was recorded with an absorbance plate reader (Sunrise, Tecan, Switzerland). Blank control values (no drug, no cells) were subtracted from the sample values and the means of replicate wells for each drug dilution and the control (cells grown in absence of the drug) were used to calculate the extent of relative cell proliferation (as percentage of the control) and growth inhibition.
A general note: Tetrazolium dyes change colour on reduction, which living cells bring about.

Data set [2] relates to MEC1 cells. Nature of the data set: MTT cell proliferation assay, MEC1 cells. In kind it is cell-based, human. The note with it: for Effect of auranofin and BSO low-dose combination on activity of NF-κB inhibitors, MEC1: auranofin 0.25-0.5 μM plus BSO 1.25-10 μM with BAY 11-7082 or EF24. The procedure:
For metabolic activity assays, here MTT-assays, cell density was 3×10^4 cells per well (96 well plate). For ROS/superoxide detection assays cell density was 1×10^5 per tube (volume 1 ml). For NF-κB family member activation assays nuclear cell extracts were used (9×10^6 cells/6 ml volume in 6 well plates). The MTT or XTT assay is the most reliable for assessment of cell growth. In principal all assays are based on staining of viable cells after treatment. Cytotoxic effects in cell lines may also be assessed by [^3H] thymidine incorporation (see below). Cell proliferation was assessed by the MTT assay. […] The plates were incubated for 72 h under standard conditions. After addition of 15 μl of a 5 mg/ml MTT solution (MTT; Sigma, Germany) to each well and incubation for another 4 h, 100 μl/well of a 10% sodium dodecyl sulphate solution in 0.01 M hydrochloric acid were added and the plates were incubated overnight under the same conditions (stain development). Subsequently, the absorbance of each well at 540 nm (reference wavelength 690 nm) was recorded with an absorbance plate reader (Sunrise, Tecan, Switzerland). Blank control values (no drug, no cells) were subtracted from the sample values and the means of replicate wells for each drug dilution and the control (cells grown in absence of the drug) were used to calculate the extent of relative cell proliferation (as percentage of the control) and growth inhibition.

For data set [3] the following is noted: human plasma, stated as achievable; cited from earlier work.
For data set [4], the system named is HL60 cells. Nature of the data set: MTT cell proliferation assay, HL60 cells. In kind it is cell-based, human. The settings on record: 200 μM OU749, 10% HS. Here is the method: For assessment of cytostatic and/or cytotoxic effects HL60 cells were washed in serum-free RPMI-1640 medium supplemented with 2 mM L-glutamine and 1% penicillin/streptomycin and diluted to 1.25×10^5/ml (logarithmic cell growth). Cells were incubated with OU749 for 10 minutes prior to addition of serum (FCS or HS, both 10%) to washed cells resulting in a density of 1.11×10^5/ml. For MTT-assays cell density was 1×10^4 cells per well (96 well plate).
The MTT or XTT assay is the most reliable for assessment of cell growth. In principal all assays are based on staining of viable cells after treatment. Cytotoxic effects in cell lines may also be assessed by [^3H] thymidine incorporation (see below). Cell proliferation was assessed by the MTT assay. After washing in serum-free medium, pre-incubation with inhibitors of the glutathione catabolism, and addition of defined serum or albumin or serum+albumin concentrations, 90-μl aliquots of the cell suspension (density see above) were dispensed into 96-well flat-bottomed microtitre plates containing 10 μl/well of serial drug dilutions. The plates were incubated for 72 h under standard conditions. After addition of 15 μl of a 5 mg/ml MTT solution (MTT; Sigma, Germany) to each well and incubation for another 4 h, 100 μl/well of a 10% sodium dodecyl sulphate solution in 0.01 M hydrochloric acid were added and the plates were incubated overnight under the same conditions (stain development). Subsequently, the absorbance of each well at 540 nm (reference wavelength 690 nm) was recorded with an absorbance plate reader (Sunrise, Tecan, Switzerland). Blank control values (no drug, no cells) were subtracted from the sample values and the means of replicate wells for each drug dilution and the control (cells grown in absence of the drug) were used to calculate the extent of relative cell proliferation (as percentage of the control) and growth inhibition. Since inhibitors were initially dissolved in DMSO, serial drug dilutions and controls were prepared to finally achieve 0.2% DMSO in all wells (total volume 100 μl); no anti-proliferative effects could be observed at this DMSO concentration in the investigated cell lines.
After washing in serum-free medium cells were diluted to desired density (3.70×10^5/ml for MEC1 and MOLM13, 1.25×10^5/ml for HL60) and HS and FCS was added both in a final concentration of 10%. Then 90-μl aliquots of the cell suspension (densities after addition of serum: 3.33×10^5/ml for MEC1 and MOLM13, 1.1×10^5/ml for HL60) were dispensed into 96-well flat-bottomed microtitre plates containing 10 μl/well of serial drug dilutions of NF-κB inhibitors. The cell concentrations in the 96 well plate were: 3×10^4/well for MEC1 and MOLM13, 1×10^4/well for HL60.
Then 90-μl aliquots of the cell suspension (densities after addition of serum: 3.33×10^5/ml for MEC1 and MOLM13, 1.1×10^5/ml for HL60) were dispensed into 96-well flat-bottomed microtitre plates containing 10 μl/well of serial drug dilutions of NF-κB inhibitors. The cell concentrations in the 96 well plates were: 3×10^4/well for MEC1 and MOLM13, 1×10^4/well for HL60.

For data set [5], the system named is NF-κB family of transcription factors (p65, p50, c-Rel, p52 and RelB). Nature of the data set: NF-κB family member activation (TransAM, nuclear extracts), MEC1 cells. In kind it is cell-based, human. The note with it: 200 μM OU749, 10% HS, 4 h. The procedure:
(§1) After 4 h incubation with defined concentrations of inhibitors of the NF-κB signalling pathway with or without co-incubation with OU749, nuclear extracts were prepared using the AM nuclear extract kit (Active Motif, La Hulpe, Belgium) according to the manufacturer's protocol. Protein concentration of the respective extracts was measured according to the Bradford method and 10 μg of total protein per preparation was used for assessment of the NF-κB family member activation.
(§2) For the assessment of NF-κB family member activation (p65, p50, c-Rel, p52 and RelB) the TransAM® NF-κB Family Transcription Factor Assay kit was applied (Active Motif, La Hulpe, Belgium) according to the manufacturer's instructions. Results were expressed as relative activation levels (relative to the activation of DMSO controls either in the presence of 10% FCS or 10% HS) and compared between different experimental settings.

For data set [6] the test system is unchanged. Nature of the data set: NF-κB family member activation (TransAM, nuclear extracts), MOLM13 cells. In kind it is cell-based, human. The settings on record: 200 μM OU749, 10% HS, 4 h. Here is the method: as §1, §2
In data set [7] the test system is MOLM13 cells. Nature of the data set: Intracellular ROS/superoxide detection by flow cytometry, MOLM13 cells. In kind it is cell-based, human. The procedure:
(§3) Intracellular ROS/superoxide levels were assessed by the ROS/superoxide Detection Assay Kit (ab139476, Abcam, Cambridge, UK) according to the manufacturer's protocol.
(§4) Cells were incubated with OU749 for 10 minutes prior to addition of serum or albumin (FCS or HS, both 10%, BSA or different HSA preparations as indicated), or albumin-supplemented FCS (supplementation with HSA or BSA: final albumin concentration 4-5 mg/ml). The final cell concentration was 1×10^5/ml/tube (volume 1 ml). Mean fluorescence intensities of at least 10000 events were assessed and compared.
(§5) ROS and superoxide levels were assessed by flow cytometry using the cellular ROS/superoxide Detection Assay Kit (ab139476, Abcam, Cambridge, UK) according to the manufacturer's protocol. […] Mean fluorescence intensities of at least 10000 events were assessed and compared.

Data set [8] concerns MEC1 cells. Nature of the data set: Intracellular ROS/superoxide detection by flow cytometry, MEC1 cells. In kind it is cell-based, human. Here is the method:
as §3, §4, §5
On the technique in general: A flow cytometer gives signals particle by particle.

[9] abbreviates: with BAY 11-7082, 10% FCS (to a lesser extent 10% HS), versus H2O.
The mark [10] stands for this setting: OU749 100 μM for 10% FCS, 200 μM for 10% HS or BSA/HSA 20 mg/ml, versus DMSO.

“Also recorded” adds a separate entry of the source.

As for `N[C@@H](CS)C(=O)NCC(=O)O` [cysteinyl-glycin], the “Effect of cysteinyl-glycin on activity of NF-κB inhibitors, MOLM13” value in data set [1] (setting [9]) is given as “decrease the activity of NF-κB inhibitors”. Besides, the “Effect of cysteinyl-glycin on activity of NF-κB inhibitors, MEC1” value in data set [2] (setting [9]) is listed as “decrease the activity of NF-κB inhibitors”.
In the case of `CC(=O)OC[C@H]1O[C@@H]([S-])[C@H](OC(C)=O)[C@@H](OC(C)=O)[C@@H]1OC(C)=O.CCP(CC)CC.[Au+]` [auranofin], the “Effect of auranofin and BSO low-dose combination on activity of NF-κB inhibitors, MOLM13” value in data set [1] (10% HS) is recorded as “enhance/restore the activity of NF-κB inhibitors”. The “Effect of auranofin and BSO low-dose combination on activity of NF-κB inhibitors, MEC1” value in data set [2] (10% HS) was “enhance/restore the activity of NF-κB inhibitors”.
In the case of `CCCCS(=N)(=O)CCC(N)C(=O)O` (centres unmarked) [BSO, buthionine sulfoximine], the “Effect of auranofin and BSO low-dose combination on activity of NF-κB inhibitors, MOLM13” value in data set [1] (10% HS) is given as “enhance/restore the activity of NF-κB inhibitors”. In data set [2] (10% HS), the “Effect of auranofin and BSO low-dose combination on activity of NF-κB inhibitors, MEC1” value is given as “enhance/restore the activity of NF-κB inhibitors”.
Take `C/C(O)=C(\C#N)C(=O)Nc1ccc(C(F)(F)F)cc1` [A77 726]: in data set [3], the “Achievable plasma concentrations of the active metabolite of leflunomide” value is “about 176 μg/ml; also recorded: about 635 μM”.
Take `COc1ccc(Cc2nnc(NS(=O)(=O)c3ccccc3)s2)cc1` [OU749, N-[5-(4-methoxybenzyl)-1,3,4-thiadiazol-2-yl]benzenesulfonamide]: the “Toxic effects of OU749 in HS-supplemented systems, HL60” value in data set [4] is “no toxic effects”. Further, in data set [1] (200 μM OU749, 10% HS), the “Toxic effects of OU749 in HS-supplemented systems, MOLM13” value was “no toxic effects”. Besides, the “OU749 concentration above which anti-proliferative effects are apparent, MOLM13, 10% FCS” value in data set [1] (10% FCS, 72 h, single agent) was “above 50 μM”. Also, the “OU749 concentration at which anti-proliferative effects appear, MOLM13, 10% HS” value in data set [1] (10% HS, 72 h, single agent) was at least 200 µM. For the same compound, the “Nuclear levels of NF-κB transcription factors, OU749 alone in HS, MEC1” value in data set [5] was “increased nuclear levels of different members of the NF-κB family of transcription factors”. The “Nuclear levels of NF-κB transcription factors, OU749 alone in HS, MOLM13” value in data set [6] is listed as “increased nuclear levels of different members of the NF-κB family of transcription factors”. The “Toxic effects of OU749 in HS-supplemented systems, MEC1” value in data set [2] (200 μM OU749, 10% HS) was “no toxic effects”. For the same compound, in data set [2] (10% FCS, 72 h, single agent), the “OU749 concentration above which anti-proliferative effects are apparent, MEC1, 10% FCS” value is “above 50 μM”. The “OU749 concentration at which anti-proliferative effects appear, MEC1, 10% HS” value in data set [2] (10% HS, 72 h, single agent) is at least 200 µM. Further, the “ROS levels, OU749 versus DMSO, MOLM13 in HS medium” value in data set [7] (200 μM OU749, 10% HS) is given as “enhanced ROS levels”. In data set [7] (setting [10]), the “Intracellular ROS levels, OU749 in presence of serum and albumin, MOLM13” value is “increases intracellular ROS levels”. In data set [8] (200 μM OU749, 10% HS), the “ROS levels, OU749 versus DMSO, MEC1 in HS medium” value is reported as “enhanced ROS levels”. For the same compound, in data set [8] (setting [10]), the “Intracellular ROS levels, OU749 in presence of serum and albumin, MEC1” value is recorded as “increases intracellular ROS levels”.
